Experimental data published in patent publication US4824860A, “Treatment of Parkinsons disease” (priority 1987, dated 1989).

Legend:
[1] = Mouse spontaneous locomotor activity using treadwheels (test 2); assay type: in vivo
Excerpt: 2. Mouse spontaneous locomotor activity using treadwheels.

[2] = Anti-depressant activity in the mouse using the Porsolt test (test 8); assay type: in vivo; settings: mice
Excerpt: 8. Measurement of anti-depressant activity in the mouse using the `Porsolt Test`.

[3] = Asymmetry and circling after unilateral administration into the extrapyramidal caudate-putamen (striatum) (test 7); assay type: in vivo, rat
Excerpt: 7. Effect on observed locomotor activity following direct administration into the extrapyramidal caudate-putamen (striatum). A test for anti-Parkinsonism potential.

MPTP-treated marmoset = MPTP-treated marmoset model of anti-Parkinson activity (test 10); assay type: in vivo
Excerpt: 10. MPTP-treated marmoset model. A test for anti-Parkinson activity.
(i) Parkinsonism-like motor deficits (hypokinesia and bradykinesia) were induced in marmosets by the intranigral infusion of 1-methyl-4-phenyl-1,2,3,6-tetrahydropyridine (MPTP) for 13 days via an implanted injection unit and osmotic minipump (Test 10). […] Drug assessments were begun after 7-10 days of infusion.

[4] = Rat spontaneous locomotor activity using photocell cages: measurement of stereotypy (test 5); assay type: in vivo
Excerpt: 5. Rat spontaneous locomotor activity using individual cages equipped with photocells: measurement of stereotypy.

[5] = Measurement of stereotyped behaviour in the mouse (test 4); assay type: in vivo
Excerpt: 4. Measurement of stereotyped behaviour in the mouse.

[6] = Hyperactivity following direct administration into the mesolimbic nucleus accumbens of the rat (test 6); assay type: in vivo
Excerpt: 6. Measurement of hyperactivity following direct administration into the mesolimbic nucleus accumbens of the rat. An indicator of anti-depressant activity.
Enhancement of locomotor activity by amphetamine and other dopamine agonists is difficult to measure because it is complicated by the development of stereotypies. […] Direct action of a compound to cause hyperactivity following administration into the mesolimbic nucleus accumbens is considered to be indicative of anti-depressant activity.

[7] = Anxiolytic activity in the mouse using a black and white test box (test 9); assay type: in vivo
Excerpt: 9. Anxiolytic activity in the mouse using a black and white test box.

[8] = Mouse spontaneous locomotor activity using individual cages equipped with photocells (test 1); assay type: in vivo; settings: for dose profile of effect on locomotor activity: 'in these tests' (locomotor tests 1-3), inhibition at low, stimulation at high dose
Excerpt: 1. Mouse spontaneous locomotor activity using individual cages equipped with photocells.

[9] = Mouse spontaneous locomotor activity measuring climbing frame behaviour (test 3); assay type: in vivo
Excerpt: 3. Mouse spontaneous locomotor activity measuring climbing frame behaviour.

5HT1 receptors = assay: Receptor binding studies using rat brain: 5HT1
dopamine D1 receptors = assay: Receptor binding studies using rat brain: dopamine D1
[10] = 0.05 mg/kg s.c., mean n=4, P<0.05
[11] = 0.05 mg/kg s.c., mean of responding animals only
[12] = 0.1 mg/kg s.c., mean n=4, P<0.01
[13] = 1.0 mg/kg s.c., mean n=4, P<0.01
[14] = 10 μg injected directly into the mesolimbic nucleus accumbens
[15] = 0.1-1 mg/kg i.p., separate study

Which locomotor activity ([1]; treadwheel test, 100 mg/kg, P<0.001) does the source give for `CCCN(CCC)CCc1cccc2c1CC(=O)N2.Cl` [Compound A, 4-(2-di-n-propylaminoethyl)-2-(3H)-indolone hydrochloride] here?
Its locomotor activity is “Stimulation of locomotor activity”.

What about the spontaneous locomotor activity ([1]; treadwheels, 1.0 and 10.0 mg/kg i.p.) of the same compound?
The spontaneous locomotor activity was “inhibition of spontaneous locomotor activity”.

And the anti-depressant activity ([2]; 0.1-10 mg/kg i/p.)?
Its anti-depressant activity is “statistically significant (P<0.05) anti-depressant activity”.

What about the “anti-depressant activity compared with amitriptyline” value ([2]; amitriptyline 2.4-40 mg/kg i.p.) of the same compound?
Its value is “greater than amitriptyline”.

And the “asymmetry and circling behaviour” value ([3]; 0.01-10.0 μg unilaterally into caudate-putamen, statistically significant at 1.0 and 10.0 μg)?
Its value is “marked contralateral asymmetry and circling behaviour”.

What about the “% time in head movements” value (MPTP-treated marmoset; 0.01 mg/kg s.c., mean n=4) of the same compound?
The value was 26%.

What about the “% time spent in LMA” value (MPTP-treated marmoset; 0.01 mg/kg s.c., mean n=4) of the same compound?
The value was 4%.

What about the “LMA (% control)” value (MPTP-treated marmoset; 0.01 mg/kg s.c., mean n=4) of the same compound?
The value was 26 % control.

What about the “% time in head movements” value (MPTP-treated marmoset; [10]) of the same compound?
Its value is 36%.

What about the “% time spent in LMA” value (MPTP-treated marmoset; [10]) of the same compound?
The value was 12%.

What about the “LMA (% control)” value (MPTP-treated marmoset; [10]) of the same compound?
The value was 47 % control.

And the “% time in head movements” value (MPTP-treated marmoset; [11])?
The value was 80%.

What about the “% time spent in LMA” value (MPTP-treated marmoset; [11]) of the same compound?
The value was 23%.

And the “LMA (% control)” value (MPTP-treated marmoset; [11])?
Its value is 70 % control.

And the “% time in head movements” value (MPTP-treated marmoset; [12])?
Its value is 83%.

What about the “% time spent in LMA” value (MPTP-treated marmoset; [12]) of the same compound?
The value was 29%.

What about the “LMA (% control)” value (MPTP-treated marmoset; [12]) of the same compound?
The value was 93 % control.

And the “% time in head movements” value (MPTP-treated marmoset; [13])?
Its value is 84%.

What about the “% time spent in LMA” value (MPTP-treated marmoset; [13]) of the same compound?
The value was 28%.

What about the “LMA (% control)” value (MPTP-treated marmoset; [13]) of the same compound?
The value was 103 % control.

And the development of tolerance (MPTP-treated marmoset; 0.1, 1.0 mg/kg s.c. twice daily for 7 days)?
Its development of tolerance is “no development of tolerance”.

What about the motor behaviour (MPTP-treated marmoset; MPTP marmosets, 0.05-1.0 mg/kg s.c., at 0.05 mg/kg 1 or 2 marmosets did not respond) of the same compound?
Its motor behaviour is “fully restored normal motor behaviour”.

What about the “movements in the limbs, trunk, head and neck” value (MPTP-treated marmoset; MPTP marmosets, s.c., most marked effect) of the same compound?
The value was “full restoration of normal movements”.

What about the MPTP-induced motor deficits (MPTP-treated marmoset; oral, each of 0.1, 0.5 or 1.0 mg/kg, seven listed motor deficits) of the same compound?
The MPTP-induced motor deficits was “Partial reversal”.

And the response (MPTP-treated marmoset; oral, highest dose 1.0 mg/kg, n=3)?
The response was “supramaximal”.

What about the response (MPTP-treated marmoset; oral, lowest dose 0.1 mg/kg, n=2) of the same compound?
Its response is “submaximal”.

And the emesis (MPTP-treated marmoset; oral, the two lower doses (0.1, 0.5 mg/kg))?
Its emesis is “No emesis”.

And the stereotypy ([4]; rat, 1.0, 10.0 and 100 mg/kg i.p., only periodic sniffing)?
Its stereotypy is “no dose dependent stereotypies”.

And the spontaneous locomotion ([4]; rat, 10.0 and 100.0 mg/kg i.p., P<0.001)?
Its spontaneous locomotion is “dose-related increases in spontaneous locomotion”.

What about the “duration of increase in spontaneous locomotion” value ([4]; rat, higher dose (100.0 mg/kg i.p.)) of the same compound?
Its value is > 2.5 h.

What about the stereotypy ([5]; mouse, 1.0, 10.0 and 100 mg/kg i.p., only periodic sniffing) of the same compound?
The stereotypy was “no dose dependent stereotypies”.

What about the spontaneous locomotion ([6]; 1.0 μg into the nucleus accumbens, tendency to inhibition in first 10 minutes) of the same compound?
The spontaneous locomotion was “ineffective”.

And the spontaneous locomotion [6, 14]?
Its spontaneous locomotion is “marked (P<0.001) increase in spontaneous locomotion”.

And the “period in the black area” value ([7]; 0.1-10 mg/kg i.p.)?
The value was “correspondingly reduced period in the black area”.

And the “time spent in the white section” value ([7]; 0.1-10 mg/kg i.p.)?
The value was “statistically significant increase in the time spent in the white section”.

And the spontaneous locomotor activity ([8]; photocell cages, 1.0 and 10.0 mg/kg i.p., statistically significant (P<0.01-0.001) at 10 mg/kg)?
Its spontaneous locomotor activity is “inhibition of spontaneous locomotor activity”.

And the locomotor activity ([8]; photocell test, 100 mg/kg, P<0.001)?
Its locomotor activity is “Stimulation of locomotor activity”.

What about the locomotor activity ([9]; 100 mg/kg, no stimulation) of the same compound?
The locomotor activity was “original inhibition was reversed”.

And the spontaneous locomotor activity ([9]; 1.0 and 10.0 mg/kg i.p., statistically significant at 1.0 mg/kg)?
Its spontaneous locomotor activity is “inhibition of spontaneous locomotor activity”.

What does the source list for `N[C@@H](Cc1ccc(O)c(O)c1)C(=O)O` [L-DOPA, reference compound]?
MPTP-induced motor deficits (MPTP-treated marmoset; 12.5 mg/kg i.p. 30 min. pretreatment, after benserazide 12.5 mg/kg s.c. 90 min. pretreatment): restored MPTP-induced motor deficits; effectiveness compared with Compound A (MPTP-treated marmoset; L-DOPA 12.5 mg/kg i.p. after benserazide 12.5 mg/kg s.c., versus 0.1 mg/kg s.c. Compound A): less effective than 0.1 mg/kg s.c. Compound A

Which “asymmetry and circling behaviour” value ([3]; up to 100 μg unilaterally into caudate-putamen) does the source give for `CC(N)Cc1ccccc1` (stereo not drawn) [amphetamine, reference compound] here?
Its value is “inactive”.

What about the stereotypy ([4]; rat, doses up to 10.0 mg/kg i.p., continuous biting, gnawing and licking) of the same compound?
Its stereotypy is “marked stereotyped behaviour”.

What about the stereotypy ([5]; mouse, doses up to 10.0 mg/kg i.p., continuous biting, gnawing and licking) of the same compound?
The stereotypy was “marked stereotyped behaviour”.

And the spontaneous locomotion [6, 14]?
Its spontaneous locomotion is “equally effective”.

What about the “dose profile of effect on locomotor activity” value [8] of the same compound?
Its value is “biphasic activity”.

With `CN1CCc2cccc3c2[C@H]1Cc1ccc(O)c(O)c1-3` [apomorphine, reference compound] as the compound, how does the “asymmetry and circling behaviour” value ([3]; up to 50 μg unilaterally into caudate-putamen) read?
Its value is “inactive”.

And the stereotypy ([4]; rat, 2.0 mg/kg s.c., continuous biting, gnawing and licking)?
Its stereotypy is “marked stereotyped behaviour”.

And the stereotypy ([5]; mouse, 2.0 mg/kg s.c., continuous biting, gnawing and licking)?
The stereotypy was “marked stereotyped behaviour”.

What about the “dose profile of effect on locomotor activity” value [8] of the same compound?
The value was “biphasic activity”.

What does the source list for `CC(C)C[C@H]1C(=O)N2CCC[C@H]2[C@]2(O)O[C@](NC(=O)[C@@H]3C=C4c5cccc6[nH]c(Br)c(c56)C[C@H]4N(C)C3)(C(C)C)C(=O)N12` [bromocriptine, reference compound]?
swimming time ([2]; 0.1-1 mg/kg i.p., effect at the higher dose): statistically significant reduction in swimming time; affinity for 5HT1 receptors (5HT1 receptors): showed affinity; MPTP-induced motor deficits (MPTP-treated marmoset; 0.1 mg/kg s.c.): little effect; investigatory activity in the black area [7, 15]: statistically significant increase in investigatory activity in the black area; light aversion [7, 15]: no change in the light aversion

Which “affinity for dopamine D1 receptors” value (dopamine D1 receptors) does the source give for `CCCN1C[C@H](CSC)C[C@@H]2c3cccc4[nH]cc(c34)C[C@H]21` [pergolide] here?
The value was “bound to dopamine D1 receptors”.

And the “affinity for 5HT1 receptors” value (5HT1 receptors)?
The value was “showed affinity”.
